Measurements taken from patent US12180167B1, “6-[4,4-bis(4-bromophenyl)-2,5-dioxoimidazolidin-1-yl]hexanoic acid as an antimicrobial compound” (KING FAISAL UNIVERSITY, priority 2024, dated 2024).

How the values were obtained:
Format in all cases: cell-based
Settings in all cases: after 10, 20, 40 and 60 minutes at all dilutions 1:100, 1:200, 1:400, 1:800
Staphylococcus aereus = assay: Antimicrobial testing by agar dilution, St. Aereus
Description: (§1) The antimicrobial properties of the 6-[4,4-bis(4-bromophenyl)-2,5-dioxoimidazolidin-1-yl]hexanoic acid were studied by the method of agar dilution. Test solutions of each compound was prepared in concentration of 1% using dimethylformamide as a solvent then they are diluted in physiological solution to obtain the final experimental dilutions 1:100, 1:200, 1:400, 1:800. The effect of these substances are compared with furacillin in a controllable study. The testing microbes used were gram positive bacteria Staphylococcus aereus, gram negative bacteria Escherichia Coli, Pseudomonas aeruginosa and Candida albicans fungi were taken. The experiments used for this survey were meat-pentonlu agar (EPA) for cultivation of bacteria and Saburo environment for fungi. Each experiment used 1 ml of test solution on each plate 500 min. Add 2 drops of emulsified with microbes feel. All experimental samples were taken from the agar after 10, 20, 40, 60 minutes in the environment on the basis of Patrk planted. Bacteria were cultivated at a temperature of 37° C. for 1 day and the mushroom was kept in a thermostat for 2 hours at a temperature of 28° C. in the. Then results were checked.

Candida albicans = assay: Antimicrobial testing by agar dilution, Candida albicans
Description: as §1

Escherichia Coli = assay: Antimicrobial testing by agar dilution, E. Coli
Description: as §1

Pseudomonas aeruginosa = assay: Antimicrobial testing by agar dilution, Ps. aeruginosa
Description: as §1

O=C(O)CCCCCN1C(=O)NC(c2ccc(Br)cc2)(c2ccc(Br)cc2)C1=O [6-[4,4-bis(4-bromophenyl)-2,5-dioxoimidazolidin-1-yl]hexanoic acid]
higher inhibition activity: inhibition activity, Staphylococcus aereus (Staphylococcus aereus) | inhibition activity, Candida albicans (Candida albicans) | inhibition activity, Escherichia Coli (Escherichia Coli) | inhibition activity, Pseudomonas aeruginosa (Pseudomonas aeruginosa)
